According to US8853389B2, “Process for refining cefmetazole sodium” (Hainan Lingkang Pharmaceutical Co., Ltd., priority 2011, dated 2014):

Columns and labels:
solubility in solvents = type: physicochemical
From the text: Since the solubility of Cefmetazole sodium is high in water but very low in ethanol and even lower in acetone, a mixture of water and ethanol or a mixture of water and acetone is chosen as the solvent to recrystallize Cefmetazole sodium.

[1] = appearance of aqueous solution of refined material; type: physicochemical; details: solution of about 0.1 g/mL in water
[2] = system: broad-spectrum β-lactamase generated by negative bacilli; details: cited from earlier work
Escherichia coli = details: cited from earlier work
Klebsiella pneumoniae = details: cited from earlier work
Proteus mirabilis = details: cited from earlier work
Shigella = details: cited from earlier work
Salmonella = details: cited from earlier work
Staphylococcus aureus = details: cited from earlier work
[3] = system: group A hemolytic streptococcus; details: cited from earlier work
[4] = system: catarrhal Brenham bacteria; details: cited from earlier work
Bacteroides fragilis = details: cited from earlier work
Enterobacter = details: cited from earlier work
Pseudomonas = details: cited from earlier work
[5] = system: methicillin-resistant Staphylococcus aureus; details: cited from earlier work
pneumococcus = details: cited from earlier work
meningococcus = details: cited from earlier work

CO[C@]1(NC(=O)CSCC#N)C(=O)N2C(C(=O)[O-])=C(CSc3nnnn3C)CS[C@H]21.[Na+] [Cefmetazole sodium]
solubility (solubility in solvents; in ethanol): very low
solubility (solubility in solvents; in water): high
appearance of solution [1]: clear and colorless
stability towards β-lactamase [2]: more stable
antibacterial activity (Escherichia coli): relatively good activity
antibacterial activity (Klebsiella pneumoniae): relatively good activity
antibacterial activity (Proteus mirabilis): relatively good activity
antibacterial activity (Shigella): relatively good activity
antibacterial activity (Salmonella): relatively good activity
sensitivity (Staphylococcus aureus): high sensitivity
sensitivity [3]: high sensitivity
sensitivity [4]: high sensitivity
antibacterial activity (Bacteroides fragilis): good antibacterial activity
sensitivity (Enterobacter): low sensitivity or resistance
sensitivity (Pseudomonas): low sensitivity or resistance
sensitivity [5]: low sensitivity or resistance
sensitivity (pneumococcus): low sensitivity or resistance
sensitivity (meningococcus): low sensitivity or resistance
